Test results: ChEMBL document CHEMBL3217491, “Design, synthesis and biological evaluation of imidazopyridine/pyrimidine-chalcone derivatives as potential anticancer agents” (2010)
Active and inactive are the calls of the source. The calls are words filed in the database; no cut-off is given here.

Assays:
IGROV-1 = test: Growth inhibition of human IGROV1 cells after 48 hrs by SRB assay; format: functional; conditions: IGROV-1, 48 h
[1] = Growth inhibition of human SF539 cells after 48 hrs by SRB assay; format: functional; conditions: SF-539, 48 h
M14 = test: Growth inhibition of human M14 cells after 48 hrs by SRB assay; format: functional; conditions: M14, 48 h
NCI-H460 = test: Growth inhibition of human NCI-H460 cells after 48 hrs by SRB assay; format: functional; conditions: NCI-H460, 48 h
MDA-MB-231 = test: Growth inhibition of human MDA-MB-231 cells after 48 hrs by SRB assay; format: functional; conditions: MDA-MB-231, 48 h
HCT-116 = test: Growth inhibition of human HCT116 cells after 48 hrs by SRB assay; format: functional; conditions: HCT-116, 48 h
DU-145 = test: Growth inhibition of human DU145 cells after 48 hrs by SRB assay; format: functional; conditions: DU-145, 48 h
NCI-H226 = test: Growth inhibition of human NCI-H226 cells after 48 hrs by SRB assay; format: functional; conditions: NCI-H226, 48 h
[2] = Growth inhibition of human MOLT4 cells after 48 hrs by SRB assay; format: functional; conditions: MOLT-4, 48 h
Malme-3M = test: Growth inhibition of human MALME-3M cells after 48 hrs by SRB assay; format: functional
[3] = Growth inhibition of human OVCAR8 cells after 48 hrs by SRB assay; format: functional; conditions: OVCAR-8, 48 h
K562 = test: Growth inhibition of human K562 cells after 48 hrs by SRB assay; format: functional; conditions: K562, 48 h
MCF7 [4] = test: Induction of apoptosis in human MCF7 cells assessed as upregulation of p27 protein expression at 4 uM by Western blot analysis relative to control; format: functional, cell-based
MCF7 [5] = test: Cell cycle arrest in human MCF7 cells assessed as accumulation at S phase at 4 uM after 24 hrs by propidium iodide staining-based flow cytometry (reference value: 20.17%); format: functional
[6] = Growth inhibition of human OVCAR4 cells after 48 hrs by SRB assay; format: functional; conditions: OVCAR-4, 48 h
SK-MEL-2 = test: Growth inhibition of human SK-MEL-2 cells after 48 hrs by SRB assay; format: functional; conditions: SK-MEL-2, 48 h
MCF7 [7] = test: Induction of cell cycle arrestin human MCF7 cells assessed as downregulation of E2F-1 protein expression at 4 uM by Western blot analysis; format: functional, cell-based
CCRF-CEM = test: Growth inhibition of human CCRF-CEM cells after 48 hrs by SRB assay; format: functional
786-0 = test: Growth inhibition of human 786-0 cells after 48 hrs by SRB assay; format: functional; conditions: 786-0, 48 h
SK-MEL-5 = test: Growth inhibition of human SK-MEL-5 cells after 48 hrs by SRB assay; format: functional; conditions: SK-MEL-5, 48 h
MCF7 [8] = test: Induction of cell cycle arrestin human MCF7 cells assessed as downregulation of CDK2 protein expression at 4 uM by Western blot analysis; format: functional, cell-based
U-251 = test: Growth inhibition of human U251 cells after 48 hrs by SRB assay; format: functional; conditions: U-251, 48 h
A549 = test: Growth inhibition of human A549 cells after 48 hrs by SRB assay; format: functional; conditions: A549, 48 h
A498 = test: Growth inhibition of human A498 cells after 48 hrs by SRB assay; format: functional; conditions: A498, 48 h
SN12C = test: Growth inhibition of human SN12C cells after 48 hrs by SRB assay; format: functional
[9] = Growth inhibition of human HCC2998 cells after 48 hrs by SRB assay; format: functional; conditions: HCC 2998, 48 h
MDA-MB-468 = test: Growth inhibition of human MDA-MB-468 cells after 48 hrs by SRB assay; format: functional; conditions: MDA-MB-468, 48 h
MCF7 [10] = test: Cell cycle arrest in human MCF7 cells assessed as accumulation at G0/G1 phase at 4 uM after 24 hrs by propidium iodide staining-based flow cytometry (reference value: 64.04%); format: functional
[11] = Growth inhibition of human NCI-ADR-RES cells after 48 hrs by SRB assay; format: functional
ACHN = test: Growth inhibition of human ACHN cells after 48 hrs by SRB assay; format: functional
[12] = Growth inhibition of human HCT15 cells after 48 hrs by SRB assay; format: functional; conditions: HCT-15, 48 h
MCF7 [13] = test: Induction of apoptosis in human MCF7 cells expressing P21 promoter -145/+8 with luciferase gene assessed as upregulation of p21 protein expression at 4 uM by Western blot analysis relative to control; format: functional, cell-based
[14] = Growth inhibition of human UACC257 cells after 48 hrs by SRB assay; format: functional; conditions: UACC-257, 48 h
[15] = Growth inhibition of human UACC62 cells after 48 hrs by SRB assay; format: functional; conditions: UACC-62, 48 h
SF-268 = test: Growth inhibition of human SF268 cells after 48 hrs by SRB assay; format: functional; conditions: SF-268, 48 h
[16] = Growth inhibition of human LOXIMVI cells after 48 hrs by SRB assay; format: functional; conditions: LOX IMVI
SNB-19 = test: Growth inhibition of human SNB19 cells after 48 hrs by SRB assay; format: functional; conditions: SNB-19, 48 h
SNB-75 = test: Growth inhibition of human SNB75 cells after 48 hrs by SRB assay; format: functional; conditions: SNB-75, 48 h
[17] = Growth inhibition of human EKVX cells after 48 hrs by SRB assay; format: functional
[18] = Growth inhibition of human BT549 cells after 48 hrs by SRB assay; format: functional; conditions: BT-549, 48 h
TK-10 = test: Growth inhibition of human TK10 cells after 48 hrs by SRB assay; format: functional; conditions: TK-10, 48 h
MCF7 [19] = test: Cell cycle arrest in human MCF7 cells assessed as accumulation at G2/M phase at 4 uM after 24 hrs by propidium iodide staining-based flow cytometry (reference value: 15.79%); format: functional
MCF7 [20] = test: Induction of cell cycle arrestin human MCF7 cells assessed as downregulation of cyclin A protein expression at 4 uM by Western blot analysis; format: functional, cell-based
T47D = test: Growth inhibition of human T47D cells after 48 hrs by SRB assay; format: functional
MCF7 [21] = test: Induction of cell cycle arrestin human MCF7 cells assessed as downregulation of cyclin E protein expression at 4 uM by Western blot analysis; format: functional, cell-based
[22] = Growth inhibition of human OVCAR5 cells after 48 hrs by SRB assay; format: functional; conditions: OVCAR-5, 48 h
[23] = Growth inhibition of human SF295 cells after 48 hrs by SRB assay; format: functional; conditions: SF-295, 48 h
MCF7 [24] = test: Growth inhibition of human MCF7 cells assessed as cell viability at 4 uM after 24 hrs by MTT assay; format: functional, cell-based
HOP-62 = test: Growth inhibition of human HOP62 cells after 48 hrs by SRB assay; format: functional; conditions: HOP-62, 48 h
[25] = Growth inhibition of human OVCAR3 cells after 48 hrs by SRB assay; format: functional; conditions: OVCAR-3, 48 h

COc1ccc(C(=O)/C=C/c2c(C(F)(F)F)nc3ccccn23)cc1OC
GI50 (IGROV-1): 440 nM | GI50 [1]: 1650 nM | GI50 (M14): 3630 nM | GI50 (NCI-H460): 680 nM | GI50 (MDA-MB-231): 3060 nM | GI50 (HCT-116): 840 nM | GI50 (DU-145): 650 nM | GI50 (NCI-H226): 4550 nM | GI50 [2]: 1030 nM | GI50 (Malme-3M): 6690 nM | GI50 [3]: 1310 nM | GI50 (K562): 360 nM | Activity (MCF7 [4]): Active | Activity (MCF7 [5]): 1.83% | GI50 [6]: 2490 nM | GI50 (SK-MEL-2): 1720 nM | inhibition (MCF7 [7]): inactive | GI50 (CCRF-CEM): 440 nM | GI50 (786-0): 2870 nM | GI50 (SK-MEL-5): 1630 nM | inhibition (MCF7 [8]): Active | GI50 (U-251): 1100 nM | GI50 (A549): 2800 nM | GI50 (A498): 2450 nM | GI50 (SN12C): 1910 nM | GI50 [9]: 480 nM | GI50 (MDA-MB-468): 1900 nM | Activity (MCF7 [10]): 97.86% | GI50 [11]: 1570 nM | GI50 (ACHN): 2850 nM | GI50 [12]: 1130 nM | Activity (MCF7 [13]): Active | GI50 [14]: 620 nM | GI50 [15]: 2220 nM | GI50 (SF-268): 1570 nM | GI50 [16]: 950 nM | GI50 (SNB-19): 1590 nM | GI50 (SNB-75): 2350 nM | GI50 [17]: 3740 nM | GI50 [18]: 2590 nM | GI50 (TK-10): 3780 nM | Activity (MCF7 [19]): 0.31% | inhibition (MCF7 [20]): inactive | GI50 (T47D): 1430 nM | inhibition (MCF7 [21]): Active | GI50 [22]: 3790 nM | GI50 [23]: 3150 nM | inhibition (MCF7 [24]): Active | GI50 (HOP-62): 3010 nM | GI50 [25]: 1980 nM
